A short description of data set [1]: First in-human PET/CT imaging. It is filed as in vivo. Particulars: mean SUV averaged over right and left side and all patients (three patients).
Data set [2] has as its system PSMA+ LNCaP cells. As to conditions: equal experimental set up; cited from earlier work.

The compound `O=C([O-])CN(CCN(CC(=O)[O-])Cc1cc(CCC(=O)NCCCCCC(=O)NCCCC[C@H](NC(=O)N[C@@H](CCC(=O)O)C(=O)O)C(=O)O)ccc1[O-])Cc1cc(CCC(=O)O)ccc1[O-].[68Ga+3].[OH3+]` [[^68Ga]Ga-PSMA-11] had an SUV kidneys in data set [1] of 30.5. In data set [2], the “Internalization±SD” value is 9.47±2.56 %IA/10^6 cells.

Values taken from publication PMC5695136 (Theranostics, 2017).
